Experimental data: PubChem BioAssay AID330 (DTP/NCI, 2004)
“And” between values parts separate entries of the source, which are not always exact repeats. Equal values may be shown once. Inconclusive results and toxic doses are left out.

Tested on: P388 leukemia ip, CD2F1 mice, survival T/C
Experiment: NCI In Vivo Anticancer Drug Screen. Data for tumor model P388 Leukemia (intraperitoneal) in CD2F1 (CDF1) mice
Details: endpoint: median survival time, higher = longer survival
Outline: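 Mice carrying the transplanted tumor received test compound or vehicle. Survival was recorded in each group, and the value is the treated-group measurement divided by that of the vehicle-treated control group.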

[1] = dose: 100.0 mg/kg/injection, schedule: Q04DX003 (ip), vehicle: other
[2] = dose: 100.0 mg/kg/injection, schedule: Q04DX003 (ip), vehicle: saline with Tween-80
[3] = dose: 200.0 mg/kg/injection, schedule: Q04DX003 (ip), vehicle: other
[4] = dose: 200.0 mg/kg/injection, schedule: Q04DX003 (ip), vehicle: saline with Tween-80
[5] = dose: 400.0 mg/kg/injection, schedule: Q04DX003 (ip), vehicle: other
[6] = dose: 400.0 mg/kg/injection, schedule: Q04DX003 (ip), vehicle: saline with Tween-80
[7] = dose: 50.0 mg/kg/injection, schedule: Q01DX005 (ip), vehicle: saline with Tween-80
[8] = dose: 100.0 mg/kg/injection, schedule: Q01DX005 (ip), vehicle: saline with Tween-80
[9] = dose: 50.0 mg/kg/injection, schedule: Q01DX009 (ip), vehicle: saline with Tween-80
[10] = dose: 100.0 mg/kg/injection, schedule: Q01DX009 (ip), vehicle: saline with Tween-80
[11] = dose: 200.0 mg/kg/injection, schedule: Q01DX009 (ip), vehicle: saline with Tween-80
[12] = dose: 50.0 mg/kg/injection, schedule: Q01DX005 (ip), vehicle: Klucel (hydroxypropylcellulose) (HPC)
[13] = dose: 100.0 mg/kg/injection, schedule: Q01DX005 (ip), vehicle: Klucel (hydroxypropylcellulose) (HPC)
[14] = dose: 25.0 mg/kg/injection, schedule: Q01DX005 (ip), vehicle: Klucel (hydroxypropylcellulose) (HPC)
[15] = dose: 50.0 mg/kg/injection, schedule: Q01DX009 (ip), vehicle: Klucel (hydroxypropylcellulose) (HPC)
[16] = dose: 100.0 mg/kg/injection, schedule: Q01DX009 (ip), vehicle: Klucel (hydroxypropylcellulose) (HPC)
[17] = dose: 200.0 mg/kg/injection, schedule: Q01DX009 (ip), vehicle: Klucel (hydroxypropylcellulose) (HPC)

Structure (SMILES): O=CN(c1ccccc1)c1ccccc1
- T/C (dose: 50.0 mg/kg/injection, schedule: Q01DX009 (ip), vehicle: other): 95 % of control
- T/C (dose: 50.0 mg/kg/injection, schedule: Q04DX003 (ip), vehicle: saline with Tween-80): 107 % of control
- T/C (dose: 100.0 mg/kg/injection, schedule: Q01DX009 (ip), vehicle: other): 90 % of control
- T/C [1]: 91 % of control
- T/C [2]: 109 % of control
- T/C (dose: 200.0 mg/kg/injection, schedule: Q01DX009 (ip), vehicle: other): 90 % of control
- T/C [3]: 87 % of control
- T/C [4]: 110 % of control
- T/C (dose: 400.0 mg/kg/injection, schedule: Q01DX009 (ip), vehicle: other): 100 % of control
- T/C [5]: 87 % of control
- T/C [6]: 110 % of control
- T/C (dose: 800.0 mg/kg/injection, schedule: Q04DX003 (ip), vehicle: saline with Tween-80): 97 % of control

Structure (SMILES): COc1ccc(C(CN2CCOCC2)C(C)=O)cc1OC (stereo unspecified)
- T/C (dose: 60.0 mg/kg/injection, schedule: Q01DX005 (ip), vehicle: saline): 101 % of control
- T/C (dose: 120.0 mg/kg/injection, schedule: Q01DX005 (ip), vehicle: saline): 101 % of control
- T/C (dose: 240.0 mg/kg/injection, schedule: Q01DX005 (ip), vehicle: saline): 101 % of control

Structure (SMILES): C=C(NC(=O)C(=C)NC(=O)c1csc(C2=NC3c4csc(n4)C4NC(=O)c5csc(n5)C(C(C)(O)C(C)O)NC(=O)C5CSC(=N5)/C(=C/C)NC(=O)C(C(C)O)NC(=O)c5csc(n5)C3(CC2)NC(=O)C(C)NC(=O)C(=C)NC(=O)C(=C)NC(=O)C(C(C)C)NC2C=Cc3c(C(C)O)cc(nc3C2O)C(=O)OC4C)n1)C(N)=O (stereo unspecified)
- T/C (dose: 50.0 mg/kg/injection, schedule: Q01DX009 (ip), vehicle: saline): 150 % of control

Structure (SMILES): CCCCCCCCCCCCNNC(=O)[C@@H]1[C@H](c2cc(OC)c(OC)c(OC)c2)c2cc3c(cc2[C@H](O)[C@H]1CO)OCO3
- T/C [7]: 117 % of control and 124 % of control
- T/C [8]: 122 % of control

Structure (SMILES): CN(C)CC1CC/C=C\C(c2ccccc2)N(C)C1c1ccccc1 (stereo unspecified)
- T/C (dose: 100.0 mg/kg/injection, schedule: Q04DX003 (ip), vehicle: suspension in saline): 105 % of control
- T/C (dose: 200.0 mg/kg/injection, schedule: Q04DX003 (ip), vehicle: suspension in saline): 116 % of control
- T/C (dose: 400.0 mg/kg/injection, schedule: Q04DX003 (ip), vehicle: suspension in saline): 99 % of control

Structure (SMILES): c1ccc(SCCSCCSc2ccccc2)cc1
- T/C [9]: 105 % of control
- T/C [10]: 101 % of control
- T/C [11]: 106 % of control

Structure (SMILES): O=C1C(NCC(O)CO)=C(N2CC2)C(=O)C(NCC(O)CO)=C1N1CC1 (stereo unspecified)
- T/C (dose: 1.5 mg/kg/injection, schedule: Q01DX009 (ip), vehicle: saline): 198 % of control
- T/C (dose: 3.0 mg/kg/injection, schedule: Q01DX009 (ip), vehicle: saline): 227 % of control
- T/C (dose: 4.0 mg/kg/injection, schedule: Q01DX009 (ip), vehicle: saline): 270 % of control

Structure (SMILES): N=c1ccn2c(n1)OC1C(OP(=O)(O)O)C(CO)OC12 (stereo unspecified)
- T/C (dose: 177.0 mg/kg/injection, schedule: Q04DX003 (ip), vehicle: saline with Tween-80): 154 % of control

Structure (SMILES): [Cl][Co][Cl].c1ccc2[nH]cnc2c1.c1ccc2[nH]cnc2c1
- T/C [12]: 111 % of control
- T/C [13]: 111 % of control

Structure (SMILES): Cn1cc(-c2ccc3c(c2)OCO3)c2ccccc21
- T/C (dose: 60.0 mg/kg/injection, schedule: Q01DX005 (ip), vehicle: saline with Tween-80): 100 % of control
- T/C (dose: 120.0 mg/kg/injection, schedule: Q01DX005 (ip), vehicle: saline with Tween-80): 100 % of control
- T/C (dose: 240.0 mg/kg/injection, schedule: Q01DX005 (ip), vehicle: saline with Tween-80): 101 % of control

Structure (SMILES): C/C(=N\O)C1CCN(Cc2ccccc2)CC1
- T/C (dose: 12.5 mg/kg/injection, schedule: Q01DX005 (ip), vehicle: Klucel (hydroxypropylcellulose) (HPC)): 105 % of control
- T/C [14]: 110 % of control
- T/C [12]: 100 % of control and 105 % of control

Structure (SMILES): CC1(C)CC(=O)C(CSCS)=C(O)C1
- T/C (dose: 100.0 mg/kg/injection, schedule: Q01DX001 (ip), vehicle: Klucel (hydroxypropylcellulose) (HPC)): 114 % of control
- T/C (dose: 200.0 mg/kg/injection, schedule: Q01DX001 (ip), vehicle: Klucel (hydroxypropylcellulose) (HPC)): 99 % of control
- T/C (dose: 400.0 mg/kg/injection, schedule: Q01DX001 (ip), vehicle: Klucel (hydroxypropylcellulose) (HPC)): 92 % of control

Structure (SMILES): CC1=CC(OCc2ccccc2)OC1=O (stereo unspecified)
- T/C (dose: 100.0 mg/kg/injection, schedule: Q04DX002 (ip), vehicle: Klucel (hydroxypropylcellulose) (HPC)): 101 % of control
- T/C (dose: 200.0 mg/kg/injection, schedule: Q04DX002 (ip), vehicle: Klucel (hydroxypropylcellulose) (HPC)): 102 % of control
- T/C (dose: 400.0 mg/kg/injection, schedule: Q04DX002 (ip), vehicle: Klucel (hydroxypropylcellulose) (HPC)): 104 % of control

Structure (SMILES): NC(=O)C[C@H](NP(=S)(c1ccccc1)c1ccccc1)C(=O)O
- T/C [15]: 102 % of control
- T/C [16]: 98 % of control
- T/C [17]: 110 % of control

Structure (SMILES): C(#Cc1c2ccccc2c(C#Cc2ccccc2)c2c1oc1c3ccccc3ccc12)c1ccccc1
- T/C [2]: 97 % of control
- T/C [4]: 97 % of control
- T/C [6]: 92 % of control

Structure (SMILES): CN(C)CCCn1c(=O)nc2n(-c3ccccc3)c3ccccc3nc-2c1=O
- T/C (dose: 6.25 mg/kg/injection, schedule: Q01DX009 (ip), vehicle: Klucel (hydroxypropylcellulose) (HPC)): 100 % of control and 106 % of control
- T/C (dose: 12.5 mg/kg/injection, schedule: Q01DX009 (ip), vehicle: Klucel (hydroxypropylcellulose) (HPC)): 105 % of control
- T/C (dose: 25.0 mg/kg/injection, schedule: Q01DX009 (ip), vehicle: Klucel (hydroxypropylcellulose) (HPC)): 109 % of control
- T/C [15]: 122 % of control

Structure (SMILES): C=CCN(CC=C)P(=O)(N1CC1)N1CC1C (stereo unspecified)
- T/C (dose: 0.6 mg/kg/injection, schedule: Q01DX009 (ip), vehicle: saline): 189 % of control
- T/C (dose: 0.9 mg/kg/injection, schedule: Q01DX009 (ip), vehicle: saline): 174 % of control

Structure (SMILES): CS/C(C#N)=C(\C#N)SC
- T/C [7]: 115 % of control
- T/C [8]: 113 % of control

Structure (SMILES): CCCCCCCCCCCC(O)CCCCC (stereo unspecified)
- T/C [1]: 100 % of control
- T/C [3]: 100 % of control
- T/C [5]: 100 % of control

Structure (SMILES): CC(C)C(NC(=O)OC(C)(C)C)C(=O)O (stereo unspecified)
- T/C [12]: 102 % of control
- T/C [13]: 104 % of control
- T/C (dose: 200.0 mg/kg/injection, schedule: Q01DX005 (ip), vehicle: Klucel (hydroxypropylcellulose) (HPC)): 93 % of control

Structure (SMILES): C=CCn1nnc(N)n1
- T/C (dose: 100.0 mg/kg/injection, schedule: Q04DX003 (ip), vehicle: Klucel (hydroxypropylcellulose) (HPC)): 111 % of control
- T/C (dose: 200.0 mg/kg/injection, schedule: Q04DX003 (ip), vehicle: Klucel (hydroxypropylcellulose) (HPC)): 109 % of control
- T/C (dose: 400.0 mg/kg/injection, schedule: Q04DX003 (ip), vehicle: Klucel (hydroxypropylcellulose) (HPC)): 105 % of control

Structure (SMILES): COc1cc(C(=O)O)cc(C(=O)O)c1
- T/C (dose: 6.25 mg/kg/injection, schedule: Q01DX009 (ip), vehicle: saline): 99 % of control
- T/C (dose: 12.5 mg/kg/injection, schedule: Q01DX009 (ip), vehicle: saline): 107 % of control
- T/C (dose: 25.0 mg/kg/injection, schedule: Q01DX009 (ip), vehicle: saline): 100 % of control

Structure (SMILES): C1CC2(CC3(C1)SCCS3)SCCS2
- T/C [15]: 94 % of control
- T/C [16]: 101 % of control
- T/C [17]: 101 % of control

Structure (SMILES): N#Cc1c(N)nc2c(c1N)CCO2
- T/C [9]: 93 % of control
- T/C [10]: 96 % of control
- T/C [11]: 99 % of control

Structure (SMILES): C=C1c2cccc(O)c2C(O)=C2C(=O)[C@]3(O)C(O)=C(C(N)=O)C(=O)[C@@H](N(C)C)[C@@H]3[C@@H](O)[C@H]12
- T/C (dose: 21.6 mg/kg/injection, schedule: Q01DX005 (ip), vehicle: Klucel (hydroxypropylcellulose) (HPC)): 105 % of control
- T/C [14]: 105 % of control and 115 % of control
- T/C (dose: 36.0 mg/kg/injection, schedule: Q01DX005 (ip), vehicle: Klucel (hydroxypropylcellulose) (HPC)): 99 % of control and 106 % of control
- T/C (dose: 60.0 mg/kg/injection, schedule: Q01DX005 (ip), vehicle: Klucel (hydroxypropylcellulose) (HPC)): 102 % of control and 97 % of control
- T/C (dose: 166.66 mg/kg/injection, schedule: Q01DX005 (ip), vehicle: Klucel (hydroxypropylcellulose) (HPC)): 115 % of control
- T/C (dose: 166.67 mg/kg/injection, schedule: Q01DX005 (ip), vehicle: Klucel (hydroxypropylcellulose) (HPC)): 112 % of control
- T/C (dose: 400.0 mg/kg/injection, schedule: Q01DX005 (ip), vehicle: Klucel (hydroxypropylcellulose) (HPC)): 87 % of control
